According to ChEMBL document CHEMBL2401622, “Synthesis and in vitro evaluation of [18F]BMS-754807: a potential PET ligand for IGF-1R” (Bioorg Med Chem Lett, 2013):

Columns and labels:
Details in all cases: 0.0001 µM
[1] = Drug uptake in human breast tumor at 0.1 nM after 1 hr by phosphor imager autoradiography; format: ADME, tissue-based
[2] = Drug uptake in human pancreatic tumor at 0.1 nM after 1 hr by phosphor imager autoradiography; format: ADME
[3] = Drug uptake in human grade 4 glioblastoma at 0.1 nM after 1 hr by phosphor imager autoradiography; format: ADME

Measured: Drug uptake

C[C@@]1(C(=O)Nc2ccc([18F])nc2)CCCN1c1nc(Nc2cc(C3CC3)[nH]n2)c2cccn2n1
Active: [1] | [2] | [3]
